Measured values from article PMC8617031, “Development of a BCL-xL and BCL-2 dual degrader with improved anti-leukemic activity,” (Nature Communications, 2021).
“And” between values parts separate entries of the source, which are not always exact repeats. Identical values can stand only once.

Molecular target: T1, His-tagged BCL-xL (Homo sapiens, UniProt Q07817)
T1 construct: purchased Sigma-Aldrich SRP0187
Experiment: AlphaScreen competitive binary binding, BCL-xL (biotin-BAD peptide)
Settings: for binary binding affinity to BCL-xL (in words): AlphaScreen, Supplementary Fig. 6
Description: The reagents were diluted in a buffer containing 250 mM HEPES pH 7.5, 1 M NaCl, 1% BSA, and 0.05% Tween-80. His-tagged BCL-xL (0.5 nM, Cat. No. SRP0187, Sigma-Aldrich) or BCL-2 (1 nM, Cat. No. SRP0186, Sigma-Aldrich) were incubated with serial diluted 753a or 753b and 2 nM biotin-tagged BAD (biotin-[…] amino-terminal, AnaSpec, for BCL-xL) or 10 nM BIM peptides (biotin-[…] N-terminal, AnaSpec, for BCL-2) to a final volume of 40 µl in a 96-well PCR plate. […] After incubation for 2 h, 5 µl 6× His-acceptor beads (Cat. No. AL128M, PerkinElmer) were added to each well at 20 µg/ml final concentration and incubated for 1 h. Then 5 µl streptavidin-donor beads were added (Cat. No. 6760002, PerkinElmer) to each well at 20 µg/ml final concentration and incubated for 45 min. At the end of the incubation period, 17 µl of each sample was transferred in adjacent wells of 384-well proxy plate (Cat. No. 6008280, PerkinElmer). The plate was scanned using the Alpha program on Biotek’s Synergy Neo2 multimode plate reader. The inhibition constant (Ki) was calculated using the non-linear regression, one site, competitive binding, Fit Ki function on GraphPad Prism 9 software, based on experimentally determined dissociation constant (Kd) for each protein–peptide pair.

[1] = BCL-xL Rep-1, plate row B, 5 uM
[2] = BCL-xL Rep-1, plate row D, 0.3125 uM
[3] = BCL-xL Rep-1, plate row E, 0.078125 uM
[4] = BCL-xL Rep-1, plate row F, 0.0195312 uM
[5] = BCL-xL Rep-1, plate row G, 0.00488281 uM
[6] = BCL-xL Rep-1, plate row H, 0.0012207 uM
[7] = BCL-xL Rep-1, plate row I, 0.000305176 uM
[8] = BCL-xL Rep-1, plate row J, 7.62939e-5 uM
[9] = BCL-xL Rep-1, plate row K, 1.90735e-5 uM
[10] = BCL-xL Rep-2, plate row B, 5 uM
[11] = BCL-xL Rep-2, plate row C, 1.25 uM
[12] = BCL-xL Rep-2, plate row D, 0.3125 uM
[13] = BCL-xL Rep-2, plate row E, 0.078125 uM
[14] = BCL-xL Rep-2, plate row F, 0.0195312 uM
[15] = BCL-xL Rep-2, plate row G, 0.00488281 uM
[16] = BCL-xL Rep-2, plate row H, 0.0012207 uM
[17] = BCL-xL Rep-2, plate row I, 0.000305176 uM
[18] = BCL-xL Rep-2, plate row K, 1.90735e-5 uM
[19] = BCL-xL, mean of the two replicate values (line without label)
[20] = BCL-xL, second value (line without label below Rep-1, apparently Rep-2)

T1 sequence (Q07817 whole entry): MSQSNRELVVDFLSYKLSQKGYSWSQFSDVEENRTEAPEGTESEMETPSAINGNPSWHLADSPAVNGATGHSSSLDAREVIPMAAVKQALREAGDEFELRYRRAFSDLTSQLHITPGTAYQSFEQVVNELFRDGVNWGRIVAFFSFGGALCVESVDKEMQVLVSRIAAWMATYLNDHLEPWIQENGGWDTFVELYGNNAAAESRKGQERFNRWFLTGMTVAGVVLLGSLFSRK

SMILES	binary binding affinity to BCL-xL (in words)	IC50 (BCL-xL Rep-1) [nM]	Ki (BCL-xL Rep-1) [nM]	Alpha signal (raw counts) [1]	Alpha signal (raw counts) [2]	Alpha signal (raw counts) [3]	Alpha signal (raw counts) [4]	Alpha signal (raw counts) [5]	Alpha signal (raw counts) [6]	Alpha signal (raw counts) [7]	Alpha signal (raw counts) [8]	Alpha signal (raw counts) [9]	Alpha signal (raw counts) (BCL-xL Rep-2, 7.62939e-5 uM)	Alpha signal (raw counts) [10]	Alpha signal (raw counts) [11]	Alpha signal (raw counts) [12]	Alpha signal (raw counts) [13]	Alpha signal (raw counts) [14]	Alpha signal (raw counts) [15]	Alpha signal (raw counts) [16]	other results
Cc1ncsc1-c1ccc([C@H](C)NC(=O)[C@@H]2C[C@@H](O)CN2C(=O)[C@@H](NC(=O)CCCCCCC(=O)N2CCN(C[C@@]3(C)CCC(c4ccc(Cl)cc4)=C(CN4CCN(c5ccc(C(=O)NS(=O)(=O)c6ccc(N[C@H](CCN7CCOCC7)CSc7ccccc7)c(S(=O)(=O)C(F)(F)F)c6)cc5)CC4)C3)CC2)C(C)(C)C)cc1 [753a]	much weaker than that of the warhead ABT263	39	1.75	27085 and 24738	145116 and 115021	433630 and 441172	726417 and 752069	950071 and 945138	1050463 and 1074380	1307721 and 1309993	1113170 and 1173569	1107772 and 1259986	1188088 and 1161046	24343 and 23695	25479 and 38889	95317 and 147841	336804 and 343845	767361 and 853215	937707 and 1041403	1127054 and 1147040	Alpha signal (raw counts) (BCL-xL Rep-1, plate row C, 1.25 uM): 28062 and 40230; Alpha signal (raw counts) [17]: 1272095 and 1259132; Alpha signal (raw counts) [18]: 1255062 and 1549086; Ki [19]: 1.52 nM; Ki [20]: 1.29 nM
Cc1ncsc1-c1ccc([C@H](C)NC(=O)[C@@H]2C[C@@H](O)CN2C(=O)[C@@H](NC(=O)CCCCCCC(=O)N2CCN(C[C@]3(C)CCC(c4ccc(Cl)cc4)=C(CN4CCN(c5ccc(C(=O)NS(=O)(=O)c6ccc(N[C@H](CCN7CCOCC7)CSc7ccccc7)c(S(=O)(=O)C(F)(F)F)c6)cc5)CC4)C3)CC2)C(C)(C)C)cc1 [753b]	much weaker than that of the warhead ABT263	25.6	1.15	34683 and 41080	104729 and 120739	342247 and 341354	676907 and 757834	979745 and 1069221	1220627 and 1147140	1208908 and 1239363	1272719 and 1257225	1178982 and 1221697	1287481 and 1327839	27681 and 27423	19946 and 33165	104103 and 115603	336015 and 412856	814066 and 879407	1170961 and 1327234	1347085 and 1401728	Alpha signal (raw counts) [17]: 1445114 and 1473085; Alpha signal (raw counts) [18]: 1348563 and 1319629; Ki [19]: 1.31 nM; Ki [20]: 1.48 nM
